A short description of data set [1]: Toxicity in LPS-stimulated splenocytes cells isolated from thioglycolate-stimulated C57BL/6 mouse assessed as decrease in live cells at 100 uM after 48 hrs using propidium iodide-staining by FACS analysis. Conditions: splenocyte. Format: cell-based. (Flow cytometry measures light scatter and fluorescence of single cells or particles in a stream.)
Data set [2] can be described thus: Antiinflammatory activity against LPS-stimulated splenocytes cells isolated from thioglycolate-stimulated C57BL/6 mouse assessed as reduction of TNFalpha mRNA level at 100 to 200 uM after 24 hrs by RT-PCR. Format: functional, Splenocyte.
Data set [3] is described as follows: Cytotoxicity against LPS-stimulated splenocytes isolated from thioglycolate-stimulated C57BL/6 mouse assessed as alterations in forward and side scattering distribution for splenocytes using propidium iodide-staining after 48 hrs by FACS analysis. The format is cell-based. As to conditions: splenocyte.
Data set [4] can be described thus: Toxicity in LPS-stimulated splenocytes cells isolated from thioglycolate-stimulated C57BL/6 mouse assessed as decrease in live cells at 100 uM after 24 hrs using propidium iodide-staining by FACS analysis. The format is cell-based. Conditions: splenocyte.
Data set [5] in a line: Cytotoxicity against splenocytes isolated from thioglycolate-stimulated C57BL/6 mouse at 10 to 100 uM after 2 hrs by MTT assay. The format is cell-based. Conditions: splenocyte. (Tetrazolium assays rely on reduction of a dye to a coloured formazan, in cell work by metabolically active cells.)
Data set [6] deals with RAW264.7. Description: Toxicity in LPS-stimulated […] assessed as decrease in live cells at 100 uM using propidium iodide-staining by FACS analysis. The format is cell-based. As to conditions: raw264.7, 100 µM.
For data set [7], the target named is Disintegrin and metalloproteinase domain-containing protein 17 (Homo sapiens) (UniProt P78536). The experiment in a line: Inhibition of recombinant TACE using Mca-P-L-A-Q-A-V-Dpa-R-S-S-S-R-NH2 as substrate at 1 to 100 uM after 3 hrs by fluorescence assay.
Chain of Disintegrin and metalloproteinase domain-containing protein 17 (Homo sapiens) (P78536 whole entry, the tested form may be a part): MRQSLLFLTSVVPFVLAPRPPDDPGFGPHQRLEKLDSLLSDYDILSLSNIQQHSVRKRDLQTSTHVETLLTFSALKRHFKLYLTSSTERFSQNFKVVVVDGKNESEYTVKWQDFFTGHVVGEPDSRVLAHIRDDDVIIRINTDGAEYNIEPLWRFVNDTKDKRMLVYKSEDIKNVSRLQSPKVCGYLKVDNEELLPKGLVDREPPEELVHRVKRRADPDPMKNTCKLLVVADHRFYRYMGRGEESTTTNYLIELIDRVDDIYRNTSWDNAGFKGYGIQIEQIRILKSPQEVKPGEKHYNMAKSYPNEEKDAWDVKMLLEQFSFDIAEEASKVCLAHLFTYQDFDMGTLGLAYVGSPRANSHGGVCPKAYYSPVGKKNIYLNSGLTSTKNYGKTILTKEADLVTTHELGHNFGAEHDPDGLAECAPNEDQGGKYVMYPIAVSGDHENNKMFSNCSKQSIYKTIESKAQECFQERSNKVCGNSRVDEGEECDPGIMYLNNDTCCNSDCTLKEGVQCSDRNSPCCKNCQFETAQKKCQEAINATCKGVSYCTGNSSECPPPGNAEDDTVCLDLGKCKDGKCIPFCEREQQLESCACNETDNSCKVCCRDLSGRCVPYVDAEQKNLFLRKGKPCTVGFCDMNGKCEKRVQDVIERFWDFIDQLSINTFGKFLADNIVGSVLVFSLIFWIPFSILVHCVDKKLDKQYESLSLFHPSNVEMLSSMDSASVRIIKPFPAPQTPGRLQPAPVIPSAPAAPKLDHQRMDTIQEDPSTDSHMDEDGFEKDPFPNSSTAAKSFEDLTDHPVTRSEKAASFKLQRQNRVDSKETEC
Data set [8] has as its system Splenocyte. The experiment in a line: Antiinflammatory activity against LPS-stimulated splenocytes isolated from thioglycolate-stimulated C57BL/6 mouse at 10 to 100 uM after 24 hrs by ELISA relative to control. The format is functional, cell-based. On the technique in general: ELISA stands for enzyme-linked immunosorbent assay.
The subject of data set [9] is RAW264.7. The experiment in a line: Antiinflammatory activity against LPS-stimulated […] at 100 uM after 24 hrs by ELISA relative to control. The format is functional. As to conditions: RAW264.7, 24 h.
A short description of data set [10]: Cytotoxicity against LPS-stimulated splenocytes isolated from thioglycolate-stimulated C57BL/6 mouse assessed as alterations in forward and side scattering distribution for splenocytes using propidium iodide-staining after 24 hrs by FACS analysis. The format is cell-based. As to conditions: splenocyte.
Data set [11] has as its system RAW264.7. The experiment in a line: Cytotoxicity against […] assessed as effect on cell viability at 100 uM after 2 hrs by MTT assay. As to conditions: raw264.7, 2 h. The format is cell-based.
Data set [12] relates to Splenocyte. Description: Antiinflammatory activity against LPS-stimulated splenocytes isolated from thioglycolate-stimulated C57BL/6 mouse at 10 uM after 24 hrs by ELISA relative to control. The format is functional, cell-based.
Data set [13] can be described thus: Cytotoxicity against splenocytes isolated from thioglycolate-stimulated C57BL/6 mouse at 10 uM after 2 hrs by MTT assay. Format: cell-based. As to conditions: splenocyte.
Data set [14] concerns RAW264.7. The experiment in a line: Antiinflammatory activity against LPS-stimulated […] at 10 uM after 24 hrs by ELISA relative to control. Format: functional. As to conditions: RAW264.7, 24 h.
The nature of data set [15]: Toxicity in LPS-stimulated splenocytes isolated from thioglycolate-stimulated C57BL/6 mouse assessed as decrease in live cells at 10 uM after 24 hrs using propidium iodide-staining by FACS analysis. The format is cell-based. Conditions: splenocyte.
Data set [16] in a line: Toxicity in LPS-stimulated splenocytes isolated from thioglycolate-stimulated C57BL/6 mouse assessed as decrease in live cells at 10 uM after 48 hrs using propidium iodide-staining by FACS analysis. The format is cell-based. Conditions: splenocyte.
The subject of data set [17] is RAW264.7. Description: Cytotoxicity against […] assessed as effect on cell viability at 10 uM after 2 hrs by MTT assay. Format: cell-based. As to conditions: raw264.7, 2 h.

Calls of active or inactive are those of the source. The rule behind the calls is not given here.

One may read the inhibition as the relative decrease from the control value, in per cent. For the compound `O=C(NCCN1CCCCC1)P(=O)(O)O`, the Activity result in [1], in [3], in data set [4], in [5], in [6] and in data set [10] was “Non-toxic” throughout. In data set [11], the Activity result is given as “Non-toxic”. In data set [2], the “inhibition (INH)” value came out at 30%. For the same compound, the inhibition result in data set [7] and in data set [8] was “Active” each time. The compound further returned an inhibition at 100 µM in data set [9] of 60%.

Take `O=C(NCCN1CCCC1)P(=O)(O)O`: the Activity result in data set [1], in data set [3], in data set [4], in [5], in data set [6] and in [10] was “Non-toxic” throughout. Besides, the Activity entry in data set [11] is reported as “Non-toxic”. In addition, in data set [2], the “inhibition (INH)” value came to 30%. Moreover, the inhibition entry in [12] and in data set [8] was “Active” each time. Also, in data set [7], the inhibition result is “inactive”. In addition, in data set [9], the inhibition at 100 µM is 60%.

Turning to `CCCC1O[C@@H]2C[C@H]3[C@@H]4CCC5=CC(=O)C=C[C@]5(C)[C@H]4[C@@H](O)C[C@]3(C)[C@]2(C(=O)CO)O1` (stereo not given in full) [BUDESONIDE], the inhibition result in data set [12] is “Active”. The Activity result in [13] is given as “Non-toxic”; in [15], “Toxic”; in [16] it was “Toxic”; in data set [17], “Non-toxic”. Further, in data set [14], at 10 µM the inhibition was 60%.

For the compound `N[C@H]1CCCC[C@H]1NC(=O)P(=O)(O)O` (relative stereo), the Activity entry in data set [1], in [3], in data set [4], in data set [5], in [6] and in [10] was “Non-toxic” in each case. Also, in data set [11], the Activity result is listed as “Non-toxic”. The “inhibition (INH)” value in data set [2] was determined as 30%. In addition, in [7], the inhibition entry was “inactive”. Also, in [8], the inhibition entry was “Active”. In addition, 100 µM produced 60% inhibition in [9].

The values above are taken from ChEMBL document CHEMBL1799958, “Aminoalkylcarbamoylphosphonates reduce TNFα release from activated immune cells” (Bioorg Med Chem Lett, 2010).
